Consider 2 molecules from patent publication US20120045433A1, “COMBINATION THERAPY” (priority 2010, published 2012).

In experiment [1] the test system is human HT-29 cell xenografts. Nature of the experiment: Antitumor activity (tumor growth inhibition, regression) in mice with human HT-29 colorectal cancer xenografts. It is filed as in vivo. The settings on record: for % Tumor Growth Inhibition: Compound I 25 mg/kg bid, cetuximab 40 mg/kg 2x/wk, irinotecan HCl 40 mg/kg q4d x5, alone or combined. An excerpt:
(§1) Mice were implanted with human HT-29 cell xenografts. The mice, cell line used, and implantation are described below.
Tumor measurements were taken once or twice per week. All animals were individually followed throughout the experiment.
(A xenograft is tissue or cells of one species grown in another, often human tumour cells in immunodeficient mice.)

Experiment [2] concerns human HT-29 cell xenografts. Nature of the experiment: Assessment of survival (increased life span) in mice with human HT-29 xenografts. Type of experiment: in vivo. As to conditions: for 50% Treatment Days: median survival, Kaplan Meier, vehicle 30 days, same doses. As for the experimental part:
as §1
For survival assessment, the percent of increased life space (ILS) was calculated as: 100×[(median survival day of treated group−median survival day of control group)/median survival day of control group]. Median survival was determined utilizing Kaplan Meier survival analysis. […] Differences between groups were considered significant when the probability value (p) was ≦0.05.

[3] abbreviates: number of mice out of 10 per group, same doses.

Structures can show the parent of a compound that is named as a salt.

Turning to `CCCS(=O)(=O)Nc1ccc(F)c(C(=O)c2c[nH]c3ncc(-c4ccc(Cl)cc4)cc23)c1F` [Compound I, propane-1-sulfonic acid {3-[5-(4-chlorophenyl)-1H-pyrrolo[2,3-b]pyridine-3-carbonyl]-2,4-difluoro-phenyl}-amide], the “Mean Tumor Volume (mm^3) End Study” value in experiment [1] (Compound I 25 mg/kg bid po, cetuximab 40 mg/kg 2x/wk ip, irinotecan HCl 40 mg/kg q4d x5 ip, alone or combined, end of study day 32) was determined as 563.72 mm^3. Further, the “% Tumor Growth Inhibition” value in experiment [1] is on record as 76%. Also, in experiment [1] (baseline at start of treatment (day 11 post implant)), the “Mean Tumor Volume (mm^3) Start Study” value is 136.24 mm^3. Also, in experiment [1] (same doses), the “% Inhibition end of study Day: 32” value stood at 76% and the “% T/C end of study Day: 32” value is recorded as 24%. The “% ILS” value in experiment [2] (increased life span versus vehicle, Compound I 25 mg/kg bid, cetuximab 40 mg/kg 2x/wk, irinotecan HCl 40 mg/kg q4d x5, alone or combined) was determined as 80%. Besides, the “50% Treatment Days” value in experiment [2] was 54 days.

`CCc1c2c(nc3ccc(OC(=O)N4CCC(N5CCCCC5)CC4)cc13)-c1cc3c(c(=O)n1C2)COC(=O)[C@]3(O)CC` [Irinotecan HCl, irinotecan hydrochloride, reference compound]: the “% Tumor Growth Inhibition” value in experiment [1] was found to be 59%. Moreover, in experiment [1] (setting [3]), the “Complete Regression” value was 0 and the “Partial Regression” value came to 0. Further, in experiment [1] (same doses), the “% Inhibition end of study Day: 32” value was determined as 59% and the “% T/C end of study Day: 32” value came to 41%. The “50% Treatment Days” value in experiment [2] amounted to 35 days.
